No end group written: not given here.
T1: angiotensin-converting enzyme (ACE) from rabbit lung (rabbit) (UniProt P12822)
T1 sequence: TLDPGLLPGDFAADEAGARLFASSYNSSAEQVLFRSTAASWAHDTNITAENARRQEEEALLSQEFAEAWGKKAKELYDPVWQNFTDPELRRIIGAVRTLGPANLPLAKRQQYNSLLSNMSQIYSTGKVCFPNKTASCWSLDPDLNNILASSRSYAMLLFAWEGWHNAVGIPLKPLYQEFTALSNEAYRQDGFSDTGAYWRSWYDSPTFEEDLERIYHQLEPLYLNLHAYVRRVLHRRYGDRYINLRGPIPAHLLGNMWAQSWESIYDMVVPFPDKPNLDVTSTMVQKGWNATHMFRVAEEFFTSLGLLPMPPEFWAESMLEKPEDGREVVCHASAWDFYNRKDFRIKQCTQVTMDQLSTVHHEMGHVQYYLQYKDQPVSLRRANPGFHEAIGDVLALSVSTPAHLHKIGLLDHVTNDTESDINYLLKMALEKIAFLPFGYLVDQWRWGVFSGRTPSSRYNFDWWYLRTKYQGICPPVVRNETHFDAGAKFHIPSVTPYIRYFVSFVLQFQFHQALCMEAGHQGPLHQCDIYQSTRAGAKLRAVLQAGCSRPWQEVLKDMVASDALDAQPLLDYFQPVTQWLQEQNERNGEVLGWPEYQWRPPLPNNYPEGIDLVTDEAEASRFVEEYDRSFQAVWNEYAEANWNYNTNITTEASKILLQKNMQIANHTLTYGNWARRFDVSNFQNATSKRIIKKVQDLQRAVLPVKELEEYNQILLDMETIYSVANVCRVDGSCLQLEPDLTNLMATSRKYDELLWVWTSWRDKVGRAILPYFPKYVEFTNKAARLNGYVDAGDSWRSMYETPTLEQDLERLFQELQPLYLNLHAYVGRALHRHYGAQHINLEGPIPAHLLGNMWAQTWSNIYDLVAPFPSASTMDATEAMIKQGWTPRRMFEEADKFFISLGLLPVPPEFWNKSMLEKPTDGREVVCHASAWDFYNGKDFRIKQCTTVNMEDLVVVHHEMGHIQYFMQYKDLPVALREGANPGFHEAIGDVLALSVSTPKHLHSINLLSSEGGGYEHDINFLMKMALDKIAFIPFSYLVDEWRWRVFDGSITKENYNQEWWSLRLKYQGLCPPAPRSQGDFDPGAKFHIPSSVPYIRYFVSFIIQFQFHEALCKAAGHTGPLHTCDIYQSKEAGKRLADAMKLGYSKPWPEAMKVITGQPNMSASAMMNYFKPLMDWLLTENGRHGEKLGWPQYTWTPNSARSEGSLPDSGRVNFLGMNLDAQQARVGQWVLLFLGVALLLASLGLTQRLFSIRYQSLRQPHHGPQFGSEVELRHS

T2: ACE (from rabbit lung) (Oryctolagus cuniculus, UniProt P12822)
T2 construct: ACE (from rabbit lung) and hippuryl-histidyl-leucine (HHL) were purchased from Sigma Co; purchased Sigma Co., St. Louis, MO, USA; host or cells: rabbit lung (tissue-derived)
T2 sequence (P12822 34-1310): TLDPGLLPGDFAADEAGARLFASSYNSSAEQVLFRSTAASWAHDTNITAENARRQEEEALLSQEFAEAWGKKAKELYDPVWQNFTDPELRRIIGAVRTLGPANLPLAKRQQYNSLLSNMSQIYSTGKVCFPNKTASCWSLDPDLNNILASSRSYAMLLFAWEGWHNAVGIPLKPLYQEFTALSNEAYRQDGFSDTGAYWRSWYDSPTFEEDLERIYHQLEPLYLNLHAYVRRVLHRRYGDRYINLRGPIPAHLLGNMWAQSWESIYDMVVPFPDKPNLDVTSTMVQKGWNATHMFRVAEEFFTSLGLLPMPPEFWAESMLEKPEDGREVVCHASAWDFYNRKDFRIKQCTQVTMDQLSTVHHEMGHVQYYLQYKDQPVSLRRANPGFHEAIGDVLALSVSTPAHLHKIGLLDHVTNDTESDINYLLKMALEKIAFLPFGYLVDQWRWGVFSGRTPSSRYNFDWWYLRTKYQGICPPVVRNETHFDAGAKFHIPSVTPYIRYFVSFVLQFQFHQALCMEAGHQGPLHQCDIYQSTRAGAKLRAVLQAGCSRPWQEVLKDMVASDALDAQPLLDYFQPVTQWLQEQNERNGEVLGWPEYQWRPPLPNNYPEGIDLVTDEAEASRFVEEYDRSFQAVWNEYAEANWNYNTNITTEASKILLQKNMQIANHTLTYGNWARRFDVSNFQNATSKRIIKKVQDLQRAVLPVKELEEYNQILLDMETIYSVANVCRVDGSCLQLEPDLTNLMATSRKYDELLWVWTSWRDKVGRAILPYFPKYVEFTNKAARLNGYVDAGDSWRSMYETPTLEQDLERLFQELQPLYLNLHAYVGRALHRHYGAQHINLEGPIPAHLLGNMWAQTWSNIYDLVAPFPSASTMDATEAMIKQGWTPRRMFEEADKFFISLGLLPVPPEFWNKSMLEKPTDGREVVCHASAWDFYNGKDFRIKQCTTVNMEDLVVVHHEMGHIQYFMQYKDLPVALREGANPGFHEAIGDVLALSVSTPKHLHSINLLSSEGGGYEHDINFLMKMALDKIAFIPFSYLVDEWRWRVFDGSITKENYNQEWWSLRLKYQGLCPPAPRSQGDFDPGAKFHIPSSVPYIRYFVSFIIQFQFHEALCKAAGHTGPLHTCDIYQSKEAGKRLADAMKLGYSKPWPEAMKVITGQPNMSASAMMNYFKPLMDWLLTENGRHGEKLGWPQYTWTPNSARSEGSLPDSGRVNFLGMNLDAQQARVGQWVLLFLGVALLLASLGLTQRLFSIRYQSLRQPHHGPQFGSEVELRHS


Legend:
[1] = biological target: T1, angiotensin-converting enzyme (ACE) from rabbit lung (rabbit)
pepsin and trypsin = assay: GI digestion stability of the synthesized peptides (pepsin, trypsin), read out as ACE inhibitory activity; format: in vitro ADME; settings: pepsin 1 mg/mL pH 2.0 37 °C 3 h, or trypsin 1.0 mg/mL pH 8.0 37 °C 4 h
Experimental: We conducted a GI digestion stability analysis of the synthesized peptides according to the method proposed by Khueychai et al. (2018) with slight modifications. Briefly, the peptide solution was incubated with 1 mg/mL of pepsin solution (0.1 M HCl, pH 2.0) at 37 °C for 3 h. Subsequently, the pH value of the mixed solution was adjusted to 8.0 with 1.0 M NaOH, and 1.0 mg/mL of trypsin added and incubated at 37 °C for 4 h. Finally, the ACE inhibitory activity of the reaction solution could be determined after boiling for 10 min, cooling to room temperature, and centrifuging for 15 min at 10,000× g.

[2] = Temperature, pH, metal ion, sugar and salt treatment stability of the synthesized peptides, read out as ACE inhibition rate; format: physicochemical; settings: 1.0 mg/mL peptide, read-out ACE inhibition rate
Experimental: The effect of temperature, pH, metal ion, sugar, and salt treatments on the stabilities of two synthesized peptides, were determined by incubating 1.0 mg/mL of VERGRRITSV and FVIEPNITPA at 20 °C, 40 °C, 60 °C, 80 °C, and 100 °C for 2 h; 37 °C for 2 h at pH 2, 4, 6, 8, and 10; with 100 μg/mL of KCl, CaCl2, ZnSO4, MgSO4, and FeSO4 solution at 37 °C for 2 h; with glucose solutions of 2%, 4%, 8%, and 12% at 37 °C for 30 min; with NaCl solutions of 2%, 4%, 8%, and 12% at 37 °C for 30 min, respectively. The ACE inhibition rate was measured immediately after incubation.

ACE (from rabbit lung) = biological target: T2, ACE (from rabbit lung); assay: ACE inhibitory activity (HHL substrate, absorbance); format: biochemical; settings: calculated by linear regression of the curve; read-out: IC50 on angiotensin converting enzyme (ACE)
Description: The Grain, Oil and Protein Engineering Laboratory of Shaanxi Normal University (Xi’an, China) provided the defatted walnut meal. ACE (from rabbit lung) and hippuryl-histidyl-leucine (HHL) were purchased from Sigma Co., St. Louis, MO, USA. Pepsin (3 × 10^3 U/g) was obtained from Solarbio Science & Technology, Co., Ltd. (Beijing, China). High-performance liquid chromatography grade acetonitrile and trifluoroacetic acid were purchased from Fischer Scientific Co. (Waltham, MA, USA). The enzyme-linked immunosorbent assay kit for the detection of ACE, angiotensinogen (AGT), aldosterone (ALD), and Endothelin-1(ET-1) was purchased from Jiangsu Jingmei Biotechnology Co., Ltd. (YanCheng, China). The enzyme-linked immunosorbent assay kit for the detection of Ang II was obtained from Shanghai Kexing Biotechnology Co., Ltd., (Shanghai, China). and the nitric oxide (NO) detection kit was a product of Nanjing Jiancheng Institute of Biological Engineering (Nanjing, China), and other chemical reagents used in the experiment were of analytical grade.
Following a previous method reported by Zheng et al. (2017), we could determine the ACE inhibitory activity of glutelin-1 hydrolysate, separated fractions, active peptides, and all the other samples with 1.0 mg/mL Captopril as a positive control. The IC50 value (the concentrationof the inhibitory peptide (μM) had to inhibit 50% of the ACE activity) was calculated by linear regression of the curve.
The following formula was used to calculate the ACE inhibition rate (%): ACE inhibition rate(%)=(1-As/Ac)×100 where Ac represents ACE solution’s absorbance without an inhibitor and As represents the mixture containing samples.

[3] = NaCl solutions 2-12%, 37 °C for 30 min

Molecule	IC50 of ACE inhibitory activity (enzyme activity assay, ACE from rabbit lung, substrate HHL) [1]	ACE inhibitory activity under pepsin or trypsin digestion (pepsin and trypsin)	stability of ACE inhibitory activity with metal ions K+, Ca2+ and Mg2+ ([2]; 100 μg/mL KCl, CaCl2, MgSO4, 37 °C for 2 h)	stability of ACE inhibitory activity under high-concentration salt conditions [2, 3]	stability of ACE inhibitory activity under low-concentration salt conditions [2, 3]	stability of ACE inhibitory activity at low glucose concentration ([2]; glucose solutions 2-12%, 37 °C for 30 min, low concentrations)	IC50 (ACE (from rabbit lung))
Phe-Val-Ile-Glu-Pro-Asn-Ile-Thr-Pro-Ala (…) (peptide)	6.36 µM	–	–	–	–	–	–
VERGRRITSV [VERGRRITSV, Val-Glu-Arg-Gly-Arg-Arg-Ile-Thr-Ser-Val]	–	could still maintain high ACE inhibitory activity	showed stability	less stable	good stability	showed stability	6.82 µM
VERGRRITSV [Val-Glu-Arg-Gly-Arg-Arg-Ile-Thr-Ser-Val (…)]	6.82 µM	–	–	–	–	–	–
